Results on one molecule are retold here after paper PMC12852919 (Scientific Reports, 2025).

One series is described as follows: Solubility in water. Type of series: physicochemical.
For a further series, the system named is SW-872 cells. The experiment in a line: Cell cycle distribution by flow cytometry, DAPI staining. Type of series: cell-based, human. The conditions noted are these: SW-872, IC25 concentration, 18 h. Background: In flow cytometry, cells or beads pass a laser one at a time.

Structures are written as SMILES. Several values for one entry are separate records, joined by “and”; a condition that tells them apart may be missing. Equal entries are not always repeated. Where two headings read alike, the source gives them in different places.

For `O=S(=O)([O-])c1ccc(O)c(C=NNC(=S)Nc2cccc3ccccc23)c1.[Na+]` [L, sodium-4-hydroxy-3-((2-(naphthalene-1-ylcarbamothioyl)hydrazono)methyl)benzenesulfonate], the solubility in water was 4420 µg/mL and 4400 µg/mL in “Solubility in water”; 1600 µg/mL in the series “Solubility in water” (listed as L^Cu); 2500 µg/mL in “Solubility in water” (listed as L^Fe); 3200 µg/mL in the series “Solubility in water” (listed as L^Mn); 1400 µg/mL in “Solubility in water” (listed as L^Ni); 2400 µg/mL in “Solubility in water” (listed as L^Zn). In addition, in the series on SW-872 cells, the “Cell cycle distribution, S” value was found to be 32.94. In the series on SW-872 cells, the “effect on cell cycle” value was “cell cycle arrest in the S phase”.
